This note sets out measurements from publication PMC6323060, “Expression in eukaryotic cells and purification of synthetic gene encoding enterocin P: a bacteriocin with broad antimicrobial spectrum” (AMB Express, 2019).

≈ marks a conversion by molar mass, not a printed value. Ends that are not written are not given here.

For one series, the system named is E. coli ATCC 25922. The experiment in a line: MIC, broth micro-dilution (CLSI). The settings on record: Escherichia coli, ATCC25922, read-out: Antimicrobial activity MIC.
The subject of series [1] is Staphylococcus aureus ATCC 29213. The experiment in a line: MIC, broth micro-dilution (CLSI). The settings on record: for MIC: Staphylococcus aureus, ATCC29213, read-out: Antimicrobial activity MIC. For orientation: Dilution methods test growth across graded concentrations, often in twofold steps.
In the next series the test system is Salmonella typhi. As to the kind of experiment: MIC, broth micro-dilution (CLSI). The series is classed as cell-based. The settings on record: Salmonella typhi clinical isolate, MHB, approx. 5 × 10^5 CFU/ml, overnight 37 °C, triplicate; for MIC: Salmonella enterica, read-out: Antimicrobial activity MIC.
Another series concerns Listeria monocytogenes. As to the kind of experiment: MIC, broth micro-dilution (CLSI). The settings on record: for MIC: Listeria monocytogenes, read-out: Antimicrobial activity MIC.
Series [2] has as its system Enterococcus faecalis ATCC 29212. The experiment in a line: MIC, broth micro-dilution (CLSI). The settings on record: for MIC: Enterococcus faecalis, ATCC29212, read-out: Antimicrobial activity MIC.
The next series relates to Salmonella paratyphi C. As to the kind of experiment: MIC, broth micro-dilution (CLSI). The series is classed as cell-based. The settings on record: Salmonella enterica, read-out: Antimicrobial activity MIC.
Series [3] deals with Staphylococcus aureus ATCC 25923. The experiment in a line: MIC, broth micro-dilution (CLSI). The settings on record: for MIC: Staphylococcus aureus, ATCC25923, read-out: Antimicrobial activity MIC.
The test system of another series is Shigella dysenteriae. The experiment in a line: MIC, broth micro-dilution (CLSI). The series is classed as cell-based. The settings on record: for MIC: Shigella dysenteriae, read-out: Antimicrobial activity MIC.
In series [4] the test system is Klebsiella pneumonia ATCC 700603. The experiment in a line: MIC, broth micro-dilution (CLSI). The settings on record: for MIC: Klebsiella pneumoniae, ATCC700603, read-out: Antimicrobial activity MIC.
Series [5] deals with Acinetobacter baumannii ATCC 13304. As to the kind of experiment: MIC, broth micro-dilution (CLSI). The settings on record: ATCC13304, read-out: Antimicrobial activity MIC.
Another series has as its system VRE. The experiment in a line: MIC, broth micro-dilution (CLSI). The settings on record: for MIC: Enterococcus, VRE, read-out: Antimicrobial activity MIC.
In a further series the test system is MRSA ATCC 33591. As to the kind of experiment: MIC, broth micro-dilution (CLSI). The settings on record: for MIC: Staphylococcus aureus, read-out: Antimicrobial activity MIC.
The subject of series [6] is Pseudomonas aeruginosa VIM+. As to the kind of experiment: MIC, broth micro-dilution (CLSI). The settings on record: for MIC: Pseudomonas aeruginosa, read-out: Antimicrobial activity MIC.
The subject of series [7] is Pseudomonas aeruginosa ATCC 27853. The experiment in a line: MIC, broth micro-dilution (CLSI). The settings on record: for MIC: Pseudomonas aeruginosa, ATCC27853, read-out: Antimicrobial activity MIC.
Series [8] has as its system S. aureus (ATCC 25923). As to the kind of experiment: Effect of salt (NaCl) on antimicrobial activity. The series is classed as cell-based, Staphylococcus aureus. Set-up: key: +: presence of activity; −: absence of activity. The settings on record: 4 h, CFU counted after 24 h at 37 °C, triplicate. The method, then: (§1) To investigate the activities of the EntP peptide in the presence of high salt concentrations, the MIC was determined as described above, except that fixed concentration of NaCl was added to each well of the microtiter plate. Overnight cultures of S. aureus (ATCC 25923) and E. coli (ATCC 25922) as Gram-positive and Gram-negative model strains were incubated in MHB with 0, 50, 100, or 150 mM NaCl for 4 h. Bacteria were serially diluted and plated in triplicate on Trypticase soy agar (HiMedia, India) plates. CFUs were counted after 24 h of incubation at 37 °C. The stability of EntP peptide in 50% human plasma was evaluated as previously described (Hou et al. [2011]). The human plasma was determined to contain no antimicrobial activity before the test. Then 800 μg/ml of recombinant EntP peptide was diluted 1:1 with fresh human plasma and incubated at 37 °C for 0, 3, or 6 h. After incubation, the antimicrobial activity of each sample was determined by MIC assays with S. aureus (ATCC 25923) and E. coli (ATCC 25922).

Series [9] deals with S. aureus (ATCC 25923). As to the kind of experiment: Stability in 50% human plasma, read out as antimicrobial activity (MIC assay). Format: in vitro ADME, Staphylococcus aureus. The settings on record: 800 μg/ml peptide diluted 1:1 with fresh human plasma (50%), 37 °C. More on the design: key: +: presence of activity; −: absence of activity. The method, then:
as §1

The subject of series [10] is E. coli (ATCC 25922). The description is as above. Format: in vitro ADME, Escherichia coli. Set-up: key: +: presence of activity; −: absence of activity. The settings on record: 800 μg/ml peptide diluted 1:1 with fresh human plasma (50%), 37 °C. The procedure:
as §1

The subject of series [11] is S. aureus (ATCC 25923) and E. coli (ATCC 25922). The experiment in a line: Antimicrobial activity in 50% human plasma, overall statement. The settings on record: 37 °C, 0, 3 or 6 h, read-out MIC assay. The series is classed as in vitro ADME. The method, then:
as §1

For series [12], the system named is E. coli (ATCC 25922). As to the kind of experiment: Effect of salt (NaCl) on antimicrobial activity. Format: cell-based, Escherichia coli. Set-up: key: +: presence of activity; −: absence of activity. The settings on record: 4 h, CFU counted after 24 h at 37 °C, triplicate. The procedure: as §1

By MIC is commonly meant the least concentration at which growth counts as inhibited. As to `CC1(C)S[C@@H]2[C@H](NC(=O)[C@H](N)c3ccccc3)C(=O)N2[C@H]1C(=O)O` [Ampicillin], the MIC in the series with E. coli ATCC 25922 was no more than 2 µg/mL; in [1], no more than 1 µg/mL; with Salmonella typhi, 2 µg/mL (≈ 5.72 µM); in the series with Listeria monocytogenes, 2 µg/mL (≈ 5.72 µM); in series [2], no more than 1 µg/mL; in the series on Salmonella paratyphi C, 2 µg/mL (≈ 5.72 µM). Moreover, the minimum inhibitory concentration (MIC) was no more than 1 µg/mL in series [3], 4 µg/mL (≈ 11.4 µM) with Shigella dysenteriae and greater than 128 µg/mL in series [4].

As to `CNC(C)C1CCC(N)C(OC2C(N)CC(N)C(OC3OCC(C)(O)C(NC)C3O)C2O)O1` (stereo not drawn) [Gentamicin], the MIC was no less than 16 µg/mL in series [5]; no more than 1 µg/mL in the series on E. coli ATCC 25922; no more than 1 µg/mL in series [1]; no more than 2 µg/mL in the series with Salmonella typhi; no less than 16 µg/mL with VRE; 8 µg/mL (≈ 16.8 µM) with Listeria monocytogenes. The MIC in the series on MRSA ATCC 33591 is no less than 16 µg/mL; in [6] it was no less than 16 µg/mL; in series [2], no more than 1 µg/mL; with Salmonella paratyphi C, no more than 1 µg/mL; in [3], no more than 1 µg/mL; with Shigella dysenteriae, 4 µg/mL (≈ 8.38 µM). Also, the results for the MIC in series [4] and in series [7] were no less than 16 µg/mL and no more than 16 µg/mL, respectively.

`CCN1CCN(C(=O)N[C@@H](C(=O)N[C@@H]2C(=O)N3[C@@H]2SC(C)(C)[C@@H]3C(=O)O)c2ccccc2)C(=O)C1=O` [Piperacillin]: the MIC is no less than 64 µg/mL in series [5]; no more than 8 µg/mL in the series with E. coli ATCC 25922; 4 µg/mL (≈ 7.73 µM) in the series on Salmonella typhi; 4 µg/mL (≈ 7.73 µM) in the series with Listeria monocytogenes; no less than 128 µg/mL in series [6]; no more than 8 µg/mL in the series on Salmonella paratyphi C. Further, the figures for the minimum inhibitory concentration (MIC) (in the series on Shigella dysenteriae; in series [4]; in [7]) were 4 µg/mL (≈ 7.73 µM), no less than 128 µg/mL and no more than 8 µg/mL, respectively.

On to `CC(C)(O/N=C(\C(=O)N[C@@H]1C(=O)N2C(C(=O)[O-])=C(C[n+]3ccccc3)CS[C@H]12)c1csc(N)n1)C(=O)O` [Ceftazidime], for which the MIC in series [5] was no less than 32 µg/mL; with E. coli ATCC 25922, no more than 2 µg/mL; in [1], no more than 2 µg/mL; in the series with Salmonella typhi it was 4 µg/mL (≈ 7.32 µM); in the series on VRE, 32 µg/mL (≈ 58.5 µM); in the series with Listeria monocytogenes it was no more than 4 µg/mL. Further, the MIC is 16 µg/mL (≈ 29.3 µM) with MRSA ATCC 33591; no less than 32 µg/mL in series [6]; no more than 4 µg/mL in series [2]; 4 µg/mL (≈ 7.32 µM) in the series on Salmonella paratyphi C; no more than 2 µg/mL in [3]; no more than 2 µg/mL in the series on Shigella dysenteriae. Moreover, the MIC was no less than 16 µg/mL in series [4] and 2 µg/mL (≈ 3.66 µM) in series [7].

Turning to `CN[C@H](CC(C)C)C(=O)N[C@H]1C(=O)N[C@@H](CC(N)=O)C(=O)N[C@H]2C(=O)N[C@H]3C(=O)N[C@H](C(=O)N[C@H](C(=O)O)c4cc(O)cc(O)c4-c4cc3ccc4O)[C@H](O)c3ccc(c(Cl)c3)Oc3cc2cc(c3O[C@@H]2O[C@H](CO)[C@@H](O)[C@H](O)[C@H]2O[C@H]2C[C@](C)(N)[C@H](O)[C@H](C)O2)Oc2ccc(cc2Cl)[C@H]1O` [Vancomycin], the minimum inhibitory concentration (MIC) in series [1] is no more than 1 µg/mL; in the series on VRE it was no less than 32 µg/mL; in the series on Listeria monocytogenes, 1 µg/mL (≈ 0.69 µM); with MRSA ATCC 33591, no less than 16 µg/mL; in series [2], no more than 1 µg/mL; in [3], no more than 1 µg/mL.

As for “enterocin P (ATRSYGNGVYCNNSKCWVNWGEAKENIAGIVISGWASGLAGMGH-{H2N-H2N-H2N-H2N-H2N-H2N}; ends and bridges not checked; UniProt O30434 28-71, looked up) [EntP]”, the “Antimicrobial activity MIC” value stood at 8 µg/mL in [1] (Staphylococcus aureus ATCC 29213, broth micro-dilution (CLSI), MHB, approx. 5 × 10^5 CFU/ml, overnight 37 °C, triplicate); 16 µg/mL in the series on Salmonella typhi; 64 µg/mL with VRE (VRE clinical isolate (resistant strain), broth micro-dilution (CLSI), MHB, approx. 5 × 10^5 CFU/ml, overnight 37 °C, triplicate); 32 µg/mL with Listeria monocytogenes (Listeria monocytogenes clinical isolate, broth micro-dilution (CLSI), MHB, approx. 5 × 10^5 CFU/ml, overnight 37 °C, triplicate); 64 µg/mL with MRSA ATCC 33591 (MRSA ATCC 33591 (resistant strain), broth micro-dilution (CLSI), MHB, approx. 5 × 10^5 CFU/ml, overnight 37 °C, triplicate); 256 µg/mL in series [6] (Pseudomonas aeruginosa VIM+ (resistant strain), broth micro-dilution (CLSI), MHB, approx. 5 × 10^5 CFU/ml, overnight 37 °C, triplicate). For the same compound, the “Antimicrobial activity MIC” value in [2] (Enterococcus faecalis ATCC 29212, broth micro-dilution (CLSI), MHB, approx. 5 × 10^5 CFU/ml, overnight 37 °C, triplicate) worked out at 16 µg/mL; in series [3] (Staphylococcus aureus ATCC 25923, broth micro-dilution (CLSI), MHB, approx. 5 × 10^5 CFU/ml, overnight 37 °C, triplicate), 8 µg/mL; in the series with Shigella dysenteriae (Shigella dysenteriae clinical isolate, broth micro-dilution (CLSI), MHB, approx. 5 × 10^5 CFU/ml, overnight 37 °C, triplicate), 128 µg/mL; in [4] (Klebsiella pneumonia ATCC 700603 (resistant strain), broth micro-dilution (CLSI), MHB, approx. 5 × 10^5 CFU/ml, overnight 37 °C, triplicate), 8 µg/mL; in series [7] (Pseudomonas aeruginosa ATCC 27853, broth micro-dilution (CLSI), MHB, approx. 5 × 10^5 CFU/ml, overnight 37 °C, triplicate), 8 µg/mL. Also, the “Activity after treatment with salt” value with S. aureus (ATCC 25923) [8] (0 mM NaCl in MHB) was “+”; in the series with S. aureus (ATCC 25923) [8] (50 mM NaCl in MHB), “+”; in the series on S. aureus (ATCC 25923) [8] (100 mM NaCl in MHB), “+”; in the series on S. aureus (ATCC 25923) [8] (150 mM NaCl in MHB), “−”; in the series with E. coli (ATCC 25922) [12] (0 mM NaCl in MHB) it was “+”; in the series with E. coli (ATCC 25922) [12] (50 mM NaCl in MHB) it was “+”. The figures for the “Activity after treatment with salt” value with E. coli (ATCC 25922) [12] (100 mM NaCl in MHB) and with E. coli (ATCC 25922) [12] (150 mM NaCl in MHB) were “+” and “−”, respectively. The “Activity after treatment with plasma” value in the series on S. aureus (ATCC 25923) [9] (0 h), in the series on S. aureus (ATCC 25923) [9] (3 h), in the series on S. aureus (ATCC 25923) [9] (6 h), in the series with E. coli (ATCC 25922) [10] (0 h), in the series on E. coli (ATCC 25922) [10] (3 h) and with E. coli (ATCC 25922) [10] (6 h) was “+” each time. Moreover, the “Antimicrobial activity in 50% human plasma compared with PBS” value in [11] is given as “not significantly different from that in PBS”.
